The record followed here is publication PMC7072451, “Membrane Binding of Neuronal Calcium Sensor-1: Highly Specific Interaction with Phosphatidylinositol-3-Phosphate” (Biomolecules, 2020).

In this experiment the target is T1, myristoylated NCS-1 (NCS-1^WT) (Homo sapiens, UniProt P62166).
T1 construct: gene NCS1; full-length, N-myristoylated by co-expressed yeast NMT in E. coli (pET22b+), sulfo-cyanine-3 maleimide labelled; unlabelled protein used as titrant
Description: fluorescence correlation spectroscopy, titration of PI liposomes with unlabelled protein. Conditions: Ca2+ present (1 mM CaCl2), pH 8.0, 100 mM NaCl; multilamellar liposomes of brain PI; concentration is of the protein; highly cooperative; sulfo-cyanine-3 labelled protein; read-out: dissociation constant. In kind it is binding.

T1 sequence (P62166 2-190): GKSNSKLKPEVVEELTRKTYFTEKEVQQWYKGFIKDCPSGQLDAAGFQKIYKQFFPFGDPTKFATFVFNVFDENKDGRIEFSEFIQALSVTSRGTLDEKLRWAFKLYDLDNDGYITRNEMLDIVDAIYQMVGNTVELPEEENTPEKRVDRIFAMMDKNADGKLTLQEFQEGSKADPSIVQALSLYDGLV

As to phosphatidylinositol, the Kd stood at 3000 nM.
